Laboratory results: the NIST ThermoML archive (doi:10.1016/j.jct.2014.12.027)
± gives the expanded uncertainty stated by the source.

Assay: activity coefficient (dimensionless); of the first substance listed, at infinite dilution; xn = mol fraction of the nth substance listed
Details: 101 kPa, Liquid, Chromatography, x1 = 0

SMILES | activity coefficient (318.15 K) | activity coefficient (328.15 K) | activity coefficient (338.15 K) | activity coefficient (348.15 K) | activity coefficient (358.15 K) | activity coefficient (368.15 K)
C=CCCCC [hex-1-ene] + CCCC[n+]1ccc(C)cc1.N#CC(=C=[N-])C#N | 11.1 ± 0.8 | 10.5 ± 0.7 | 10.2 ± 0.7 | 9.72 ± 0.66 | 9.17 ± 0.63 | 8.75 ± 0.6
CCC(=O)CC [pentan-3-one] + CCCC[n+]1ccc(C)cc1.N#CC(=C=[N-])C#N | 0.942 ± 0.059 | 0.976 ± 0.061 | 1.01 ± 0.06 | 1.05 ± 0.07 | 1.07 ± 0.07 | 1.11 ± 0.07
CCc1ccccc1 [ethylbenzene] + CCCC[n+]1ccc(C)cc1.N#CC(=C=[N-])C#N | 1.78 ± 0.12 | 1.83 ± 0.12 | 1.87 ± 0.13 | 1.93 ± 0.13 | 1.98 ± 0.13 | 2.01 ± 0.14
C1CCCCC1 [cyclohexane] + CCCC[n+]1ccc(C)cc1.N#CC(=C=[N-])C#N | 11.1 ± 0.8 | 10.5 ± 0.7 | 10 ± 0.7 | 9.57 ± 0.65 | 9.07 ± 0.62 | 8.65 ± 0.59
O [water] + CCCC[n+]1ccc(C)cc1.N#CC(=C=[N-])C#N | 0.971 ± 0.061 | 0.926 ± 0.059 | 0.887 ± 0.056 | 0.859 ± 0.055 | 0.826 ± 0.053 | 0.796 ± 0.052
c1ccsc1 [thiophene] + CCCC[n+]1ccc(C)cc1.N#CC(=C=[N-])C#N | 0.636 ± 0.044 | 0.658 ± 0.045 | 0.678 ± 0.046 | 0.704 ± 0.047 | 0.733 ± 0.049 | 0.748 ± 0.049
CCCCO [butan-1-ol] + CCCC[n+]1ccc(C)cc1.N#CC(=C=[N-])C#N | 1.31 ± 0.09 | 1.23 ± 0.08 | 1.17 ± 0.07 | 1.13 ± 0.07 | 1.09 ± 0.07 | 1.05 ± 0.07
C1CCCCCC1 [cycloheptane] + CCCC[n+]1ccc(C)cc1.N#CC(=C=[N-])C#N | 12.8 ± 0.9 | 12.1 ± 0.8 | 11.7 ± 0.8 | 11.1 ± 0.8 | 10.6 ± 0.7 | 10.3 ± 0.7
CCCCCC [hexane] + CCCC[n+]1ccc(C)cc1.N#CC(=C=[N-])C#N | 24.3 ± 1.7 | 23 ± 1.6 | 22.1 ± 1.5 | 20.8 ± 1.4 | 20 ± 1.4 | 19.1 ± 1.3
CCO [ethanol] + CCCC[n+]1ccc(C)cc1.N#CC(=C=[N-])C#N | 0.917 ± 0.058 | 0.876 ± 0.056 | 0.838 ± 0.054 | 0.812 ± 0.053 | 0.784 ± 0.051 | 0.755 ± 0.05
CC#N [acetonitrile] + CCCC[n+]1ccc(C)cc1.N#CC(=C=[N-])C#N | 0.584 ± 0.041 | 0.59 ± 0.04 | 0.593 ± 0.042 | 0.599 ± 0.042 | 0.604 ± 0.042 | 0.613 ± 0.043
Cc1ccc(C)cc1 [1,4-dimethylbenzene] + CCCC[n+]1ccc(C)cc1.N#CC(=C=[N-])C#N | – | 1.66 ± 0.11 | 1.71 ± 0.11 | 1.79 ± 0.12 | 1.84 ± 0.12 | 1.9 ± 0.13
CC(C)=O [acetone] + CCCC[n+]1ccc(C)cc1.N#CC(=C=[N-])C#N | 0.598 ± 0.042 | 0.617 ± 0.043 | 0.634 ± 0.044 | 0.656 ± 0.045 | 0.672 ± 0.046 | 0.686 ± 0.046
C1CCOC1 [tetrahydrofuran] + CCCC[n+]1ccc(C)cc1.N#CC(=C=[N-])C#N | 0.779 ± 0.051 | 0.807 ± 0.052 | 0.827 ± 0.053 | 0.856 ± 0.055 | 0.872 ± 0.056 | 0.907 ± 0.058
CC(C)CO [2-methyl-1-propanol] + CCCC[n+]1ccc(C)cc1.N#CC(=C=[N-])C#N | 1.33 ± 0.086 | 1.23 ± 0.079 | 1.16 ± 0.074 | 1.11 ± 0.07 | 1.06 ± 0.067 | 1.02 ± 0.064
CCCCCCCCC [nonane] + CCCC[n+]1ccc(C)cc1.N#CC(=C=[N-])C#N | 65.1 ± 4.5 | 59.1 ± 4 | 55.7 ± 3.8 | 51.2 ± 3.5 | 47.6 ± 3.3 | 45.8 ± 3.1
CCCCCCCCCC [decane] + CCCC[n+]1ccc(C)cc1.N#CC(=C=[N-])C#N | 90.4 ± 6.2 | 83 ± 5.7 | 76.5 ± 5.2 | 72.6 ± 5 | 67.7 ± 4.6 | 62.8 ± 4.3
Cc1ccccc1 [toluene] + CCCC[n+]1ccc(C)cc1.N#CC(=C=[N-])C#N | 1.19 ± 0.08 | 1.23 ± 0.08 | 1.27 ± 0.08 | 1.32 ± 0.09 | 1.36 ± 0.09 | 1.4 ± 0.09
CCCO [propan-1-ol] + CCCC[n+]1ccc(C)cc1.N#CC(=C=[N-])C#N | 1.06 ± 0.07 | 1.01 ± 0.06 | 0.965 ± 0.061 | 0.936 ± 0.059 | 0.906 ± 0.057 | 0.872 ± 0.056
c1ccncc1 [pyridine] + CCCC[n+]1ccc(C)cc1.N#CC(=C=[N-])C#N | – | 0.498 ± 0.038 | 0.51 ± 0.038 | 0.528 ± 0.039 | 0.542 ± 0.04 | 0.557 ± 0.04
c1ccccc1 [benzene] + CCCC[n+]1ccc(C)cc1.N#CC(=C=[N-])C#N | 0.889 ± 0.057 | 0.916 ± 0.058 | 0.937 ± 0.059 | 0.976 ± 0.061 | 1 ± 0.06 | 1.02 ± 0.06
CCC[N+](=O)[O-] [1-nitropropane] + CCCC[n+]1ccc(C)cc1.N#CC(=C=[N-])C#N | – | 0.748 ± 0.049 | 0.756 ± 0.05 | 0.769 ± 0.05 | 0.783 ± 0.051 | 0.792 ± 0.052
Cc1cccc(C)c1 [1,3-dimethylbenzene] + CCCC[n+]1ccc(C)cc1.N#CC(=C=[N-])C#N | – | 1.71 ± 0.11 | 1.76 ± 0.12 | 1.82 ± 0.12 | 1.88 ± 0.13 | 1.94 ± 0.13
C#CCCCC [1-hexyne] + CCCC[n+]1ccc(C)cc1.N#CC(=C=[N-])C#N | 2.98 ± 0.2 | 3.04 ± 0.21 | 3.1 ± 0.21 | 3.17 ± 0.22 | 3.25 ± 0.22 | 3.3 ± 0.22
CCCCCCC [heptane] + CCCC[n+]1ccc(C)cc1.N#CC(=C=[N-])C#N | 33.7 ± 2.3 | 31.3 ± 2.1 | 29.7 ± 2 | 27.6 ± 1.9 | 25.8 ± 1.8 | 24.7 ± 1.7
CCCCCCCC [octane] + CCCC[n+]1ccc(C)cc1.N#CC(=C=[N-])C#N | 46.4 ± 3.2 | 43.2 ± 3 | 41.1 ± 2.8 | 38.4 ± 2.6 | 36.3 ± 2.5 | 34.6 ± 2.4
C#CCCCCC [1-heptyne] + CCCC[n+]1ccc(C)cc1.N#CC(=C=[N-])C#N | 4.09 ± 0.28 | 4.15 ± 0.28 | 4.22 ± 0.29 | 4.29 ± 0.29 | 4.34 ± 0.3 | 4.43 ± 0.3
